Several values for one entry are separate records, joined by “and”; a condition that tells them apart may be missing. Equal entries are not always repeated. One block for each compound: values may come before it.
Legend:
Assay in all cases: radiometric filter-binding kinase assay, Kinase HotSpot
Details in all cases: compound 0.5 µM; ATP 10 µM
ABL2 (human) = ABL2 (human) (UniProt P42684)
AKT1 (human) = AKT1 (human) (UniProt P31749)
AURKA (human) = AURKA (human) (UniProt O14965)
BRSK2 (human) = BRSK2 (human) (UniProt Q8IWQ3)
CAMK4 (human) = CAMK4 (human) (UniProt Q16566)
CAMKK1 (human) = CAMKK1 (human) (UniProt Q8N5S9)
CAMKK2 (human) = CAMKK2 (human) (UniProt Q96RR4)
CDK1 CCNA2 (human) = CDK1 CCNA2 (human) (UniProt P06493+P20248)
CDK3 CCNE1 (human) = CDK3 CCNE1 (human) (UniProt Q00526+P24864)
DCLK2 (human) = DCLK2 (human) (UniProt Q8N568)
DYRK1B (human) = DYRK1B (human) (UniProt Q9Y463)
IGF1R (human) = IGF1R (human) (UniProt P08069)
IKBKB (human) = IKBKB (human) (UniProt O14920)
JAK3 JH1 JH2 (human) = JAK3 JH1 JH2 (human) (UniProt P52333)
LYN (human) = LYN (human) (UniProt P07948)
MAP3K14 (human) = MAP3K14 (human) (UniProt Q99558)
MAPK9 (human) = MAPK9 (human) (UniProt P45984)
MAPKAPK5 (human) = MAPKAPK5 (human) (UniProt Q8IW41)
MARK1 (human) = MARK1 (human) (UniProt Q9P0L2)
MET (human) = MET (human) (UniProt P08581)
NEK1 (human) = NEK1 (human) (UniProt Q96PY6)
NTRK1 (human) = NTRK1 (human) (UniProt P04629)
OXSR1 (human) = OXSR1 (human) (UniProt O95747)
PAK2 (human) = PAK2 (human) (UniProt Q13177)
PAK4 (human) = PAK4 (human) (UniProt O96013)
PAK6 (human) = PAK6 (human) (UniProt Q9NQU5)
PDPK1 (human) = PDPK1 (human) (UniProt O15530)
PRKCA (human) = PRKCA (human) (UniProt P17252)
PRKCB2 (human) = PRKCB2 (human) (UniProt P05771)
PRKCH (human) = PRKCH (human) (UniProt P24723)
PTK6 (human) = PTK6 (human) (UniProt Q13882)
RIPK2 (human) = RIPK2 (human) (UniProt O43353)
RPS6KA3 KD1 KD2 (human) = RPS6KA3 KD1 KD2 (human) (UniProt P51812)
RPS6KB1 (human) = RPS6KB1 (human) (UniProt P23443)
SRPK3 (human) = SRPK3 (human) (UniProt Q9UPE1)
STK16 (human) = STK16 (human) (UniProt O75716)
STK38 (human) = STK38 (human) (UniProt Q15208)
SYK (human) = SYK (human) (UniProt P43405)
TXK (human) = TXK (human) (UniProt P42681)
[1] = biological target: TYK2 JH1 catalytic (human) (UniProt P29597)
ULK3 (human) = ULK3 (human) (UniProt Q6PHR2)
ZAP70 (human) = ZAP70 (human) (UniProt P43403)

Sequence of PDPK1 (human) (O15530 whole entry, looked up): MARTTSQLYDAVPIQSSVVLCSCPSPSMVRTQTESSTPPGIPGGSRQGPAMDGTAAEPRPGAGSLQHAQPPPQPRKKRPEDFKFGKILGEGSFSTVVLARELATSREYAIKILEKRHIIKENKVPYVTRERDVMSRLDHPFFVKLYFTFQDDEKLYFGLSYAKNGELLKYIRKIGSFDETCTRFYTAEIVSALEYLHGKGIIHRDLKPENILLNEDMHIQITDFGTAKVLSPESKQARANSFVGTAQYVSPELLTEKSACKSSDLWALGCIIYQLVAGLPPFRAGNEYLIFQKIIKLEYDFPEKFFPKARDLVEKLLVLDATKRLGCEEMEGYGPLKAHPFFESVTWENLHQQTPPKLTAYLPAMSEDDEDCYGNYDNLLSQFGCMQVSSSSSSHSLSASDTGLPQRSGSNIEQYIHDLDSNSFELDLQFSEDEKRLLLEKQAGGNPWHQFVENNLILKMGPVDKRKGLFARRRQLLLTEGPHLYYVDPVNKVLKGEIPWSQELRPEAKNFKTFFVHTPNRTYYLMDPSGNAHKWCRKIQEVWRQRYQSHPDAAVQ
Sequence of TXK (human) (P42681 whole entry, looked up): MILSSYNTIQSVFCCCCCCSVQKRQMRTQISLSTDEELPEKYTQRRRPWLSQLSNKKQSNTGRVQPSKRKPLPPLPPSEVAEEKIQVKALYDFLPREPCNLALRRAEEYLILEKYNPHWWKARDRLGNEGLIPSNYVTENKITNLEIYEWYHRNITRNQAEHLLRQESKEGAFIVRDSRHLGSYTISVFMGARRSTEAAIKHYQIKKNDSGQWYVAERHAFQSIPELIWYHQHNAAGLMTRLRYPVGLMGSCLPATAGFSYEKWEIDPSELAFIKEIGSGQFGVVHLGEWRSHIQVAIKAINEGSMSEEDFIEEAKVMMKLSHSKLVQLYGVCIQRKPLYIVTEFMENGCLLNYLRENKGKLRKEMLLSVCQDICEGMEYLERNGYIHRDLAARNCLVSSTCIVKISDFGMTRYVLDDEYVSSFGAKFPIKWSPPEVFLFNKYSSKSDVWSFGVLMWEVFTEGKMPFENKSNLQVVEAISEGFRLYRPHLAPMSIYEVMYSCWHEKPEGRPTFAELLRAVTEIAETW
Sequence of CAMK4 (human) (Q16566 whole entry, looked up): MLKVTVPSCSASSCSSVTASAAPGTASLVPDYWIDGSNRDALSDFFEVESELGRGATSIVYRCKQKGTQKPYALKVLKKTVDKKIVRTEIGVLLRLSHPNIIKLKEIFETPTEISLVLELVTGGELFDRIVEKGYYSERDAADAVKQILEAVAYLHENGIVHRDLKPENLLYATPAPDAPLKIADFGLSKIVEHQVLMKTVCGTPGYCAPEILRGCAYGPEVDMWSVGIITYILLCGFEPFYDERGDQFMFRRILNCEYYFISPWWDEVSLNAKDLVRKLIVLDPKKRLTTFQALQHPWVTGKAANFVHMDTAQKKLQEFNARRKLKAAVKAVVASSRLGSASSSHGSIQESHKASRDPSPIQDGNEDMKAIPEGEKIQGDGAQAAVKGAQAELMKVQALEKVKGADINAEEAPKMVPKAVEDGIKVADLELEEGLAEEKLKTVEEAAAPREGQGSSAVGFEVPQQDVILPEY
Sequence of IKBKB (human) (O14920 whole entry, looked up): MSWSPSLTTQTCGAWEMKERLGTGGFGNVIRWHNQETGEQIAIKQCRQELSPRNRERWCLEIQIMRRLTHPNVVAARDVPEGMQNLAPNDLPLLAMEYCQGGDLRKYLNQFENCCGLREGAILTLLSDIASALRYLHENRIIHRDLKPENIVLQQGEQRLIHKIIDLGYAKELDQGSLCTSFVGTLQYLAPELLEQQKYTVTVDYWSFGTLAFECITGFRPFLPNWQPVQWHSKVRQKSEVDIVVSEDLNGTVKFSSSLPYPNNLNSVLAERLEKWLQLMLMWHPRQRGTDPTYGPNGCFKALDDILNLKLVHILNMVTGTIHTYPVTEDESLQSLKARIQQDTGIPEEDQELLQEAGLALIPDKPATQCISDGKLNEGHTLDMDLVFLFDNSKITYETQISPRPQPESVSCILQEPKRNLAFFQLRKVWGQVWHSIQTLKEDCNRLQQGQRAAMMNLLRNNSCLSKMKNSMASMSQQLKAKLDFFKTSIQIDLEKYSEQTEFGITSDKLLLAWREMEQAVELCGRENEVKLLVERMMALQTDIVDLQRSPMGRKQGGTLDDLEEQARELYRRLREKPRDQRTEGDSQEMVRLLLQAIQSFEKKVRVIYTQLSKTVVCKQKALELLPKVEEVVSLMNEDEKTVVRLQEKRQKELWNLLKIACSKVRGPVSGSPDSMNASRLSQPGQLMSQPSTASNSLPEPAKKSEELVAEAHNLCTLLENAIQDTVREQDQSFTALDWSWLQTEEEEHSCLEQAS
Sequence of NTRK1 (human) (P04629 whole entry, looked up): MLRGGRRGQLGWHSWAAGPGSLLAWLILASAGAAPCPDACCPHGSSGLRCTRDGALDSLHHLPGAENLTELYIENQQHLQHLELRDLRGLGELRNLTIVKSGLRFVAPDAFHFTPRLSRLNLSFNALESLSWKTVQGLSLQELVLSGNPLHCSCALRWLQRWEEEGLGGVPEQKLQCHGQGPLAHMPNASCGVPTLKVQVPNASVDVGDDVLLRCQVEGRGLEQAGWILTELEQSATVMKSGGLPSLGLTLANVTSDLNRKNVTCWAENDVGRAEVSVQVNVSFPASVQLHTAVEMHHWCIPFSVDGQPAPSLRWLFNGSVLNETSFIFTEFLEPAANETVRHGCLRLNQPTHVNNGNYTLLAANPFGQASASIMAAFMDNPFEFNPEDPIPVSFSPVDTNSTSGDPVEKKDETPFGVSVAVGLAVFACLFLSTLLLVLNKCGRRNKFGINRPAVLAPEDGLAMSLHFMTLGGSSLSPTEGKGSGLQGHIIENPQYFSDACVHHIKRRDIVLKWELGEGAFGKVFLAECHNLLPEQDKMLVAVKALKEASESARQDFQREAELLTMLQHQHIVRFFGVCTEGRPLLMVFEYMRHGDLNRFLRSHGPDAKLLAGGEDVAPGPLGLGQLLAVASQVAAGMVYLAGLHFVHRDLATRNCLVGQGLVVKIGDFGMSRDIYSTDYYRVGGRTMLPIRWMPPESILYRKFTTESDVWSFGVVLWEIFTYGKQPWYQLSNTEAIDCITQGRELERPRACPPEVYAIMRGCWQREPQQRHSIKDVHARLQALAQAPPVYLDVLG
Sequence of JAK3 JH1 JH2 (human) (P52333 whole entry, looked up): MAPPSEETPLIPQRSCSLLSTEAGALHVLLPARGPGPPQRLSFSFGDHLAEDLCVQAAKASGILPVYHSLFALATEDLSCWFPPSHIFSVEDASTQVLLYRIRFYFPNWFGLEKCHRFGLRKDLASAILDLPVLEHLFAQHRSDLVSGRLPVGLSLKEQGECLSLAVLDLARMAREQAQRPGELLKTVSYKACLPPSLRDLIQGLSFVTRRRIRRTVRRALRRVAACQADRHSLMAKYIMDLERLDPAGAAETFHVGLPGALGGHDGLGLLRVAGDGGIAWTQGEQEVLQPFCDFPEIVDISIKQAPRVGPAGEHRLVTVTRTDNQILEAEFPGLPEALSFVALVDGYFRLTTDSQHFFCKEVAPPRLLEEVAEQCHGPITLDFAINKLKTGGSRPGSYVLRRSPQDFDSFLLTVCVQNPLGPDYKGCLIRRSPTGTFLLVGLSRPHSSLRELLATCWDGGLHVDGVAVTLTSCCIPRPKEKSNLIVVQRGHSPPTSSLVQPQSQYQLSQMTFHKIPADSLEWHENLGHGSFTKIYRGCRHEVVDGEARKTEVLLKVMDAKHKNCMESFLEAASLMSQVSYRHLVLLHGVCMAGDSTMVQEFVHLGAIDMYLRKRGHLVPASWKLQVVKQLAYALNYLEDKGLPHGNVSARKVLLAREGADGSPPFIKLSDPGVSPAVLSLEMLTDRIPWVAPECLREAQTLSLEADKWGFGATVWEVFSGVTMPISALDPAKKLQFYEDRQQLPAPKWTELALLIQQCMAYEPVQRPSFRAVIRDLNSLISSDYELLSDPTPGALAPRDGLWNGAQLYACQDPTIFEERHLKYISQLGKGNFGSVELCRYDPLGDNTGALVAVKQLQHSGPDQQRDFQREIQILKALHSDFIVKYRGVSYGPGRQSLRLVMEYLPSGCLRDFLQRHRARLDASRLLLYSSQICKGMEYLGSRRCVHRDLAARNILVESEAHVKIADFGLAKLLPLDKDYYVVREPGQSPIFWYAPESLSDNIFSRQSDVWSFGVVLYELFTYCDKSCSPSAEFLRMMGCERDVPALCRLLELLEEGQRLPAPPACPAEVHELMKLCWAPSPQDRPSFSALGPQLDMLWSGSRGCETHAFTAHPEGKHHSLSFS
Sequence of PRKCH (human) (P24723 whole entry, looked up): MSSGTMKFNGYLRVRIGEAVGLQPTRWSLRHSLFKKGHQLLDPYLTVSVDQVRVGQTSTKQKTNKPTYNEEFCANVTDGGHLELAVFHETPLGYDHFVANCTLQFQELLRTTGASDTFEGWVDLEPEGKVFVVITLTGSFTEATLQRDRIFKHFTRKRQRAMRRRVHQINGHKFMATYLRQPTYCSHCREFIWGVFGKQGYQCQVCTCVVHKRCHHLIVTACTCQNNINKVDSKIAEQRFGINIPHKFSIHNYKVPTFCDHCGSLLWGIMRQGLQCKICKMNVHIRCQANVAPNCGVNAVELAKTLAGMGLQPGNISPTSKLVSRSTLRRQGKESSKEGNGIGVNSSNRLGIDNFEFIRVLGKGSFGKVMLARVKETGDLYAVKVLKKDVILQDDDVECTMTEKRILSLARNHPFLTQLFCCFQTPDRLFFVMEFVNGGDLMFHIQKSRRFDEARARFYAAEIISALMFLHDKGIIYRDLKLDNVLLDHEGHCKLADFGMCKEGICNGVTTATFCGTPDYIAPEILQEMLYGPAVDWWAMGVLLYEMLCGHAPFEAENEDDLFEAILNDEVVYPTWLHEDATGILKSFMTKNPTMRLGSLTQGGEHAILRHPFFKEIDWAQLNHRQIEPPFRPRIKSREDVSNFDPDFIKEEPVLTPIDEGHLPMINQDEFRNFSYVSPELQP

Compound: O=C1NC(=O)/C(=C/c2ccc3c(c2)OC(F)(F)O3)S1
- residual activity (ABL2 (human)): 96%
- residual activity (AKT1 (human)): 98.2%
- residual activity (AURKA (human)): 92.4%
- residual activity (BRSK2 (human)): 90.9%
- residual activity (CAMK4 (human)): 101%
- residual activity (CAMKK1 (human)): 86%
- residual activity (CAMKK2 (human)): 82.9%
- residual activity (CDK1 CCNA2 (human)): 97.2%
- residual activity (CDK3 CCNE1 (human)): 99.4%
- residual activity (DCLK2 (human)): 99.7%
- residual activity (DYRK1B (human)): 101%
- residual activity (IGF1R (human)): 101%
- residual activity (IKBKB (human)): 96.1%
- residual activity (JAK3 JH1 JH2 (human)): 98.6%
- residual activity (LYN (human)): 98.1% and 99.9%
- residual activity (MAP3K14 (human)): 106%
- residual activity (MAPK9 (human)): 90.9%
- residual activity (MAPKAPK5 (human)): 98.2%
- residual activity (MARK1 (human)): 97.2%
- residual activity (MET (human)): 96.2%
- residual activity (NEK1 (human)): 79.6%
- residual activity (NTRK1 (human)): 92.5%
- residual activity (OXSR1 (human)): 97.1%
- residual activity (PAK2 (human)): 99.9%
- residual activity (PAK4 (human)): 90%
- residual activity (PAK6 (human)): 103%
- residual activity (PDPK1 (human)): 100%
- residual activity (PRKCA (human)): 106%
- residual activity (PRKCB2 (human)): 97.6%
- residual activity (PRKCH (human)): 92.7%
- residual activity (PTK6 (human)): 94.8%
- residual activity (RIPK2 (human)): 88.2%
- residual activity (RPS6KA3 KD1 KD2 (human)): 103%
- residual activity (RPS6KB1 (human)): 85.1%
- residual activity (SRPK3 (human)): 95.4%
- residual activity (STK16 (human)): 91%
- residual activity (STK38 (human)): 107%
- residual activity (SYK (human)): 95.3%
- residual activity (TXK (human)): 95.4%
- residual activity [1]: 88.4%
- residual activity (ULK3 (human)): 109%
- residual activity (ZAP70 (human)): 99.2%

Compound: CCCC(=O)Oc1ccc2[nH]c(C(=O)c3cc4ccccc4[nH]3)cc2c1
- residual activity (ABL2 (human)): 96.3%
- residual activity (AKT1 (human)): 102%
- residual activity (AURKA (human)): 94.6%
- residual activity (BRSK2 (human)): 98.8%
- residual activity (CAMK4 (human)): 111%
- residual activity (CAMKK1 (human)): 106%
- residual activity (CAMKK2 (human)): 84.6%
- residual activity (CDK1 CCNA2 (human)): 87.3%
- residual activity (CDK3 CCNE1 (human)): 88.2%
- residual activity (DCLK2 (human)): 89.2%
- residual activity (DYRK1B (human)): 103%
- residual activity (IGF1R (human)): 88.3%
- residual activity (IKBKB (human)): 98.7%
- residual activity (JAK3 JH1 JH2 (human)): 95.6%
- residual activity (LYN (human)): 103% and 98.7%
- residual activity (MAP3K14 (human)): 109%
- residual activity (MAPK9 (human)): 76%
- residual activity (MAPKAPK5 (human)): 101%
- residual activity (MARK1 (human)): 96.4%
- residual activity (MET (human)): 103%
- residual activity (NEK1 (human)): 94.3%
- residual activity (NTRK1 (human)): 98.6%
- residual activity (OXSR1 (human)): 92.4%
- residual activity (PAK2 (human)): 102%
- residual activity (PAK4 (human)): 87.4%
- residual activity (PAK6 (human)): 94.5%
- residual activity (PDPK1 (human)): 101%
- residual activity (PRKCA (human)): 102%
- residual activity (PRKCB2 (human)): 102%
- residual activity (PRKCH (human)): 93.6%
- residual activity (PTK6 (human)): 85.4%
- residual activity (RIPK2 (human)): 90%
- residual activity (RPS6KA3 KD1 KD2 (human)): 97.5%
- residual activity (RPS6KB1 (human)): 94.5%
- residual activity (SRPK3 (human)): 93.2%
- residual activity (STK16 (human)): 100%
- residual activity (STK38 (human)): 96.9%
- residual activity (SYK (human)): 93.9%
- residual activity (TXK (human)): 99.1%
- residual activity [1]: 90.7%
- residual activity (ULK3 (human)): 89.5%
- residual activity (ZAP70 (human)): 100%

- residual activity (ABL2 (human)): 73.2%
- residual activity (AKT1 (human)): 98.8%
- residual activity (AURKA (human)): 27.6%
- residual activity (BRSK2 (human)): 89%
- residual activity (CAMK4 (human)): 96.2%
- residual activity (CAMKK1 (human)): 93.3%
- residual activity (CAMKK2 (human)): 75.2%
- residual activity (CDK1 CCNA2 (human)): 88.7%
- residual activity (CDK3 CCNE1 (human)): 89.4%
- residual activity (DCLK2 (human)): 90.4%
- residual activity (DYRK1B (human)): 98.9%
- residual activity (IGF1R (human)): 103%
- residual activity (IKBKB (human)): 107%
- residual activity (JAK3 JH1 JH2 (human)): 47%
- residual activity (LYN (human)): 39.1% and 53.3%
- residual activity (MAP3K14 (human)): 109%
- residual activity (MAPK9 (human)): 78%
- residual activity (MAPKAPK5 (human)): 77.6%
- residual activity (MARK1 (human)): 62.5%
- residual activity (MET (human)): 1.18%
- residual activity (NEK1 (human)): 23.5%
- residual activity (NTRK1 (human)): 7.81%
- residual activity (OXSR1 (human)): 116%
- residual activity (PAK2 (human)): 96.2%
- residual activity (PAK4 (human)): 101%
- residual activity (PAK6 (human)): 108%
- residual activity (PDPK1 (human)): 114%
- residual activity (PRKCA (human)): 91.9%
- residual activity (PRKCB2 (human)): 99.1%
- residual activity (PRKCH (human)): 88.7%
- residual activity (PTK6 (human)): 91.3%
- residual activity (RIPK2 (human)): 92.7%
- residual activity (RPS6KA3 KD1 KD2 (human)): 76.8%
- residual activity (RPS6KB1 (human)): 83.7%
- residual activity (SRPK3 (human)): 84.8%
- residual activity (STK16 (human)): 95.4%
- residual activity (STK38 (human)): 102%
- residual activity (SYK (human)): 96.7%
- residual activity (TXK (human)): 102%
- residual activity [1]: 75.1%
- residual activity (ULK3 (human)): 55.3%
- residual activity (ZAP70 (human)): 94.4%
Compound: Cc1[nH]c(/C=C2\C(=O)Nc3ccc(S(=O)(=O)N(C)c4cccc(Cl)c4)cc32)c(C)c1C(=O)N1CCN(C)CC1
